Data taken from ChEMBL document CHEMBL2429867, “Generation by mutasynthesis of potential neuroprotectant derivatives of the bipyridyl collismycin A” (2013).

Organism: Danio rerio
Assay: Neuroprotective activity in 3 days postfertilized zebrafish larvae assessed as reduction of all-trans retinoic acid-induced apoptosis at 1 uM after 24 hrs by fluorescence microscopy
Format: functional
Parameters: scale not given: the % may be the effect or the level left
`COc1cc(-c2cccc(C)n2)nc(/C=N/O)c1SC` was tested, and the Activity was 40%.
For `COc1cc(-c2cc(C)ccn2)nc(/C=N/O)c1SC`, the Activity was 70%.
With `O=C(O)CCCCC1CCSS1` (stereo not drawn) [LIPOIC ACID, ALPHA] the Activity was 61%.
